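Step 1: Grow cells in 96-well plates. Step 2: Expose to compound for 48 hours at 5 concentrations. Step 3: Interpolate endpoints linearly; if unreached, use highest concentration. GI50 marks 50% less growth. Definition used: TGI = concentration required for complete inhibition of growth.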
Experiments:
Assay in all cases: inhibition of tumour cell growth, NCI panel, 48 h
786-0 renal = system: 786-0 renal
A498 renal = system: A498 renal
A549 NSCLC = system: A549 NSCLC
ACHN renal = system: ACHN renal
BT-549 breast = system: BT-549 breast
CAKI-1 renal = system: CAKI-1 renal
CCRF-CEM leukemia = system: CCRF-CEM leukemia
COLO 205 colon = system: COLO 205 colon
DU-145 prostate = system: DU-145 prostate
EKVX NSCLC = system: EKVX NSCLC
HCC-2998 colon = system: HCC-2998 colon
HCT-116 colon = system: HCT-116 colon
HCT-15 colon = system: HCT-15 colon
HL-60(TB) leukemia = system: HL-60(TB) leukemia
HOP-62 NSCLC = system: HOP-62 NSCLC
HOP-92 NSCLC = system: HOP-92 NSCLC
HS 578T breast = system: HS 578T breast
HT29 colon = system: HT29 colon
IGROV1 ovarian = system: IGROV1 ovarian
K-562 leukemia = system: K-562 leukemia
KM12 colon = system: KM12 colon
LOX IMVI melanoma = system: LOX IMVI melanoma
M14 melanoma = system: M14 melanoma
MALME-3M melanoma = system: MALME-3M melanoma
MCF7 breast = system: MCF7 breast
MDA-MB-231 breast = system: MDA-MB-231 breast
MDA-MB-435 = system: MDA-MB-435
MOLT-4 leukemia = system: MOLT-4 leukemia
NCI-H226 lung = system: NCI-H226 lung
NCI-H23 lung = system: NCI-H23 lung
NCI-H460 lung = system: NCI-H460 lung
NCI-H522 lung = system: NCI-H522 lung
NCI/ADR-RES ovarian = system: NCI/ADR-RES ovarian
OVCAR-3 ovarian = system: OVCAR-3 ovarian
OVCAR-4 ovarian = system: OVCAR-4 ovarian
OVCAR-5 ovarian = system: OVCAR-5 ovarian
OVCAR-8 ovarian = system: OVCAR-8 ovarian
PC-3 prostate = system: PC-3 prostate
RPMI-8226 leukemia = system: RPMI-8226 leukemia
RXF 393 renal = system: RXF 393 renal
SF-268 CNS = system: SF-268 CNS
SF-295 CNS = system: SF-295 CNS
SF-539 CNS = system: SF-539 CNS
SK-MEL-2 melanoma = system: SK-MEL-2 melanoma
SK-MEL-28 melanoma = system: SK-MEL-28 melanoma
SK-MEL-5 melanoma = system: SK-MEL-5 melanoma
SK-OV-3 ovarian = system: SK-OV-3 ovarian
SN12C renal = system: SN12C renal
SNB-19 CNS = system: SNB-19 CNS
SNB-75 CNS = system: SNB-75 CNS
SR leukemia = system: SR leukemia
SW-620 colon = system: SW-620 colon
T-47D breast = system: T-47D breast
TK-10 renal = system: TK-10 renal
U251 CNS = system: U251 CNS
UACC-257 melanoma = system: UACC-257 melanoma
UACC-62 melanoma = system: UACC-62 melanoma
UO-31 renal = system: UO-31 renal

Cc1c2c(nn1C)CSCc1cc(n(C)n1)CSc1cc(c3ccccc3c1)OCCCc1c(C(=O)O)n(C)c3c-2c(Cl)ccc13
GI50 (786-0 renal): 4.4 µM | TGI (786-0 renal): 17.8 µM | GI50 (A498 renal): 4.01 µM | TGI (A498 renal): 19 µM | GI50 (A549 NSCLC): 4.38 µM | TGI (A549 NSCLC): 15.6 µM | GI50 (ACHN renal): 4.1 µM | TGI (ACHN renal): 14 µM | GI50 (BT-549 breast): 2.52 µM | TGI (BT-549 breast): 11.2 µM | GI50 (CAKI-1 renal): 4.98 µM | TGI (CAKI-1 renal): 17.4 µM | GI50 (CCRF-CEM leukemia): 1.73 µM | TGI (CCRF-CEM leukemia): 10.6 µM | GI50 (COLO 205 colon): 3.36 µM | TGI (COLO 205 colon): 12.2 µM | GI50 (DU-145 prostate): 4.52 µM | TGI (DU-145 prostate): 15.9 µM | GI50 (EKVX NSCLC): 3.86 µM | TGI (EKVX NSCLC): 15.7 µM | GI50 (HCC-2998 colon): 3.15 µM | TGI (HCC-2998 colon): 13.4 µM | GI50 (HCT-116 colon): 3.53 µM | TGI (HCT-116 colon): 13 µM | GI50 (HCT-15 colon): 5.83 µM | TGI (HCT-15 colon): 18.9 µM | GI50 (HL-60(TB) leukemia): 0.0427 µM | TGI (HL-60(TB) leukemia): 0.294 µM | GI50 (HOP-62 NSCLC): 4.62 µM | TGI (HOP-62 NSCLC): 17.3 µM | GI50 (HOP-92 NSCLC): 2.46 µM | TGI (HOP-92 NSCLC): 10.2 µM | GI50 (HS 578T breast): 4.48 µM | TGI (HS 578T breast): 32.7 µM | GI50 (HT29 colon): 3.32 µM | TGI (HT29 colon): 12.6 µM | GI50 (IGROV1 ovarian): 3.99 µM | TGI (IGROV1 ovarian): 14.5 µM | GI50 (K-562 leukemia): 3.78 µM | TGI (K-562 leukemia): 16.8 µM | GI50 (KM12 colon): 3.3 µM | TGI (KM12 colon): 11.9 µM | GI50 (LOX IMVI melanoma): 2.87 µM | TGI (LOX IMVI melanoma): 12.1 µM | GI50 (M14 melanoma): 2.68 µM | TGI (M14 melanoma): 11.1 µM | GI50 (MALME-3M melanoma): 2.84 µM | TGI (MALME-3M melanoma): 9.87 µM | GI50 (MCF7 breast): 0.575 µM | TGI (MCF7 breast): 11.3 µM | GI50 (MDA-MB-231 breast): 5.32 µM | TGI (MDA-MB-231 breast): 18.2 µM | GI50 (MDA-MB-435): 2.45 µM | TGI (MDA-MB-435): 14.3 µM | GI50 (MOLT-4 leukemia): 0.448 µM | TGI (MOLT-4 leukemia): 4.4 µM | GI50 (NCI-H226 lung): 4.4 µM | TGI (NCI-H226 lung): 23.2 µM | GI50 (NCI-H23 lung): 1.78 µM | TGI (NCI-H23 lung): 10.6 µM | GI50 (NCI-H460 lung): 3.23 µM | TGI (NCI-H460 lung): 10.7 µM | GI50 (NCI-H522 lung): 1.9 µM | TGI (NCI-H522 lung): 8.01 µM | GI50 (NCI/ADR-RES ovarian): 14.2 µM | TGI (NCI/ADR-RES ovarian): 30 µM | GI50 (OVCAR-3 ovarian): 2.7 µM | TGI (OVCAR-3 ovarian): 6.82 µM | GI50 (OVCAR-4 ovarian): 6.76 µM | TGI (OVCAR-4 ovarian): 22.9 µM | GI50 (OVCAR-5 ovarian): 5.11 µM | TGI (OVCAR-5 ovarian): 17.6 µM | GI50 (OVCAR-8 ovarian): 4.62 µM | TGI (OVCAR-8 ovarian): 18.9 µM | GI50 (PC-3 prostate): 3.42 µM | TGI (PC-3 prostate): 13.2 µM | GI50 (RPMI-8226 leukemia): 0.0401 µM | TGI (RPMI-8226 leukemia): 1.33 µM | GI50 (RXF 393 renal): 1.29 µM | TGI (RXF 393 renal): 3.63 µM | GI50 (SF-268 CNS): 4.42 µM | TGI (SF-268 CNS): 16.3 µM | GI50 (SF-295 CNS): 2.52 µM | TGI (SF-295 CNS): 8.37 µM | GI50 (SF-539 CNS): 1.53 µM | TGI (SF-539 CNS): 7.33 µM | GI50 (SK-MEL-2 melanoma): 0.165 µM | TGI (SK-MEL-2 melanoma): 0.429 µM | GI50 (SK-MEL-28 melanoma): 3.61 µM | TGI (SK-MEL-28 melanoma): 12.9 µM | GI50 (SK-MEL-5 melanoma): 2.2 µM | TGI (SK-MEL-5 melanoma): 5.22 µM | GI50 (SK-OV-3 ovarian): 10.6 µM | TGI (SK-OV-3 ovarian): 22.7 µM | GI50 (SN12C renal): 3.38 µM | TGI (SN12C renal): 12.6 µM | GI50 (SNB-19 CNS): 3.56 µM | TGI (SNB-19 CNS): 13.9 µM | GI50 (SNB-75 CNS): 4.35 µM | TGI (SNB-75 CNS): 18 µM | GI50 (SR leukemia): 0.47 µM | TGI (SR leukemia): 7.25 µM | GI50 (SW-620 colon): 4.26 µM | TGI (SW-620 colon): 16 µM | GI50 (T-47D breast): 3.88 µM | TGI (T-47D breast): 15.7 µM | GI50 (TK-10 renal): 4.75 µM | TGI (TK-10 renal): 18.3 µM | GI50 (U251 CNS): 4.05 µM | TGI (U251 CNS): 13.7 µM | GI50 (UACC-257 melanoma): 4.16 µM | TGI (UACC-257 melanoma): 16 µM | GI50 (UACC-62 melanoma): 0.456 µM | TGI (UACC-62 melanoma): 2.35 µM | GI50 (UO-31 renal): 5.07 µM | TGI (UO-31 renal): 17.8 µM

— PubChem BioAssay (NCI)
